# {Cy3} = Cy3 fluorescent dye label; d = 2'-deoxy (DNA); r = 2'-OH (RNA)
# Legend:
# [1] = tested on: MG63, HOB, HCT116, HEK293 and MC3T3 cells; test: Flow cytometry cellular uptake of Cy3-cpRNA in different cells; assay type: cell-based, human; mouse; conditions: 50 nM, 24 h at 37° C., carrier-free
# Experimental: To determine the amount of cellular uptake of cpRNA by flow cytometry, Cy3 labeled cpRNA (Table 3) was used for transfection experiments using different types of cells (MG63, HOB, HCT116, HEK293 and MC3T3). Cells were seeded at a density of 1×10^5 cells per well and cultured for 24 hours. Thereafter, cells were transfected with 50 nM Cy3-cpRNA, with control wells left untreated. Post-transfection, cells were incubated for further 24 h at 37° C., trypsinised and washed with PBS containing 2 mM EDTA and 0.5% human serum albumin. The cells were then suspended in PBS and subjected to fluorescence analysis on a FACSCanto II (BD Biosciences) BioVis platform, scilife laboratory. The images were analyzed using FlowJo software (version 7.6; TreeStar, Ashland, Oreg.).
# [2] = tested on: GAPDH; test: GAPDH gene knockdown in MG63 cells by RT-PCR; assay type: cell-based, human; conditions: MG63 cells, carrier-free transfection, 50 nM, 24 h
# Experimental: At 70% confluency, a day prior to transfection, the cells were seeded at a density of 35 000 cells in a 24-well cell culture plate to achieve 60-80% confluence at the day of transfection. Cell penetrating siRNAs (cpRNAs) of different lengths were transfected at 50 nM concentrations with Magnet Assisted Transfection (MATra-si) reagent for siRNAs (IBA GmbH, Göttingen, Germany) according to the manufacturers' protocols. Briefly, the siRNA was mixed with MATra-si reagent composed of supermagnetic ironoxide nanoparticles and incubated for 20 min. A complex was formed which was added to the cells to be transfected. A strong magnetic force was applied beneath the cells for 15 min. This forced the complex to be drawn into the cells by the magnetic field, and as a result the siRNA was delivered directly into the cytosol. For carrier free transfection experiments, cpRNAs were simply added to cells lines MG63, HOB, HCT116, fibroblasts and keratinocytes at 50 nM concentrations. Cells were also transfected with negative control siRNA (scrambled sequence) and cells left untreated were taken as controls. Each transfection was performed in triplicate. Post transfection, cells were incubated for 24 hours.
# For the experiments involving lysosomotropic agent chloroquine (CQ), CQ was first neutralized to pH 7.4 using 1 M NaOH prior to use. MG63 cells were transfected with dT2, dT5, dT8, (dT5)2, as(dT5), and bl(dT5) siRNA in presence or absence of 100 μM CQ or using MATra-si and incubated for 24 h. Similar experiments were performed for other cpRNAs namely, dA5, dT5, dG5, (dT5)2, rA5 and dC5. For the control experiment, cells were either left untreated or transfected with negative control siRNA (scrambled sequence). Each transfection experiment was performed in triplicate.
# After performing transfection experiments for 24 h, 48 h and 72 h respectively, total RNA was isolated from cells by adding 500 μl of lysis buffer (Qiagen, Germany), followed by homogenization of cell lysates using QIAshredder (Qiagen, Germany). RNA was extracted from cell lysates by RNeasy Mini Kit (Qiagen, Germany). All RNA samples were treated with DNase using TURBO-DNAfree (Ambion, USA). Agilent 2100 BioAnalyzer (Agilent Technologies, Palo Alto, Calif.) was used to confirm high quality of all RNA samples, which reports an RNA Integrity Number (RIN) that takes into account the entire electrophoretic RNA trace produced in the analysis. A RIN of greater than or equal to seven indicates the RNA is suitable for high stringency applications.
# cDNA synthesis was performed in triplicate using total RNA reverse transcribed using High Capacity cDNA reverse transcription kit (Applied Biosystems, USA), with non-template control added to ensure a lack of signal in assay background. Reactions were incubated on a 96-well Applied Biosystems 9800 Fast Thermal Cycler PCR System at 37° C. for 60 min followed by 95° C. for 5 min. The real-time PCR reactions were carried out with 10 μl of 2×TaqMan® Universal PCR Master Mix, no AmpErase® UNG (Applied Biosystems, USA), 9 μl diluted cDNA, and 1 μl of TaqMan gene specific assay mix in a 20 μl final reaction volume. Reference gene beta-actin (ACTB) (Applied Biosystems, USA) was selected as control for normalization of TaqMan data. The assay included a no-template control, a standard curve of five serial dilution points (in steps of 3-fold) of cDNA mixture. Probes specific for IFN-α (Hs01022060_m1), IFN-β (Hs01077958_s1), IFN-γ (Hs00985251_m1), ACTB(Hs01060665_g1) and GAPDH (Hs02758991_g1) were purchased from Applied Biosystems. The amplification was carried out using the 7500 Fast Real-Time PCR System (Applied Biosystems, USA) using a 40-cycle program. The 7500 software automatically calculates raw Ct (cycle threshold) values. Data from samples with a Ct value equal to or below 35 were further analyzed. […]
# [3] = tested on: MG63 cells; test: Flow cytometry uptake kinetics and ODN2006 blocking in MG63 cells; assay type: cell-based, human; conditions: MG63 cells, 50 nM, 37° C.
# Experimental: To determine cpRNA cellular uptake kinetics, FACS experiments were repeated as mentioned above using MG63 cells, where Cy3-cpRNA was treated for different time points. Briefly, Cy3-cpRNA (50 nM) was added to cells, followed by incubation for 0.5 h, 1 h, 1.5 h, 2 h, 3 h and 4 h respectively. The cells were subsequently trypsinised and analyzed by FACS as mentioned above.
# To perform […] blocking studies, seeded MG63 cells were incubated with 600 nM 3′-FITC labeled ODN2006 for 1 h, followed by addition of 50 nM cpRNA. Cells were incubated for additional 0.5 h, 1 h, 1.5 h, 2 h, 3 h and 4 h respectively, trypsinised and analyzed by FACS analysis as mentioned above.
# To verify if the uptake mechanism of cpRNA was analogous to viral RNA and the RNA mimic polyriboinosinic:polyribocytidylic acid or poly(I:C), blocking studies were performed using the Btype single-stranded DNA sequence ODN2006 which share a common uptake receptor. This synthetic phosphorothioate modified oligo, though initially identified as a TLR9 agonist, blocks cellular uptake of viral RNA and poly(I:C) by preferentially competing with the common RNA uptake receptor. Blocking experiment were performed by pre-incubating the cells with FITC labeled ODN2006 for 1 h, followed by the addition of Cy3-labeled cpRNA. The blocking studies and cellular uptake was monitored using FACS analysis at different time points for up to 4 h. As a control experiment, the uptake kinetics was performed in the absence of FITC labeled ODN2006. […] These experiments verified the involvement of an alternate uptake mechanism and indicated the presence of a ubiquitous RNA capture receptor that required ˜1 h of maturation time before the endocytosis process could initiate.
# [4] = tested on: MG63 cells; conditions: no own experiment described; cited from earlier work
# [5] = tested on: MG63 and HOB cells; test: Cell proliferation / toxicity by MTS assay; assay type: cell-based, human; conditions: 50 and 100 nM, 24 h post transfection
# Experimental: Cell proliferation was assessed by MTS (3-(4,5-dimethylthiazol-2-yl)-5-(3-carboxymethoxyphenyl)-2-(4-sulfophenyl)-2H-tetrazolium, inner salt) reagent assay: MG63 cells were seeded at a density of 35 000 cells in 24-well culture plates, and cultured for 24 hours as mentioned above. Cells were transfected with 50 nM or 100 nM concentrations of cpRNA and negative control siRNAs with or without MATra-si, while control wells were left untreated. Each transfection experiment was performed in triplicate. Post-transfection, cells were incubated for 24 hours at 37° C. The viable cells were evaluated by MTS assay, using CellTiter 96®AQueousOne Solution Cell Proliferation Assay (Promega, USA) according to the manufacturer's protocol. The enzymatic reduction in MTS to formazan was quantified by an ELISA plate reader (Thermo Scientific) at 490 nm.
# Thus, the role of siRNA topography on immune activation and cellular toxicity was investigated because increased RNA length has been reported to cause toxicity with increased interferon (IFN)-β expression. toxicity studies were performed using the MTS assay with two concentrations of GAPDH siRNA (50 and 100 nM) with different overhang lengths (dT2, dT5, and dT8) in MG63 and HOB cells and compared it with the scrambled siRNA sequence (FIG. 5).
# [6] = Thermal denaturation (Tm) of siRNA duplexes; assay type: physicochemical
# Experimental: Thermal denaturation studies of siRNA was carried out in phosphate buffer, pH 7.0, containing 140 mM KCl. UV absorbance was monitored at 260 nm in the temperature range from 40 to 95° C. using a Lambda 35 UV-Vis spectrophotometer equipped with a Peltier temperature programmer with a heating rate of 0.5° C./min. Samples (1 μM RNA) were denatured at 90° C. for 3 min followed by slow cooling to 27° C. prior to the measurements. Tm values were obtained from the maxima of the first derivatives of the melting curves. All Tm values given are the averages of three independent sets of experiments (±0.3° C. error range).
Substance,cellular uptake by flow cytometry ([1]; listed as Cy3-labeled cpRNA),cellular uptake by flow cytometry ([1]; listed as Cy3 labeled cpRNA),GAPDH gene knockdown [2] [%],time after which cellular uptake was initiated [3] [h],time in which uptake finished after initiation [3] [h],uptake kinetics [4] [min],cytotoxicity (MTS assay) [5],"Tm ([6]; 7.5 mM phosphate buffer pH 7.0 containing 140 mM KCl, 1 μM strands, 40-95° C.) [°C]",Δ Tm ([6]; Tm relative to canonical siRNA (dT2)) [°C],drop in Tm ([6]; as compared to canonical siRNA) [°C]
"Cy3 cpRNA: GAPDH cpRNA with Cy3 at 5′-end of sense strand (SEQ ID NO: 12, dT5), antisense SEQ ID NO: 2 (sense CCGAGCCACAUCGCUCAGATTTTT; antisense UCUGAGCGAUGUGGCUCGGTT; sense: sugars from the 5' end r19 d5, 5' {Cy3}, backbone not given here; antisense: sugars from the 5' end r19 d2, backbone not given here)",near quantitative cellular uptake,quantitatively taken up by all the cells,80,1,≤ 2,,,,,
polyriboinosinic:polyribocytidylic acid [poly(I:C)],,,,,,≤ 5,,,,
"dT8: GAPDH siRNA, sense SEQ ID NO: 4 with dT8 3′-overhang, antisense SEQ ID NO: 2 with dT2 (sense CCGAGCCACAUCGCUCAGATTTTTTTT; antisense UCUGAGCGAUGUGGCUCGGTT; sense: sugars from the 5' end r19 d8, backbone not given here; antisense: sugars from the 5' end r19 d2, backbone not given here)",,,50,,,,do not impose toxicity,79.8,−1.4,1.5

# From patent US20180265867A1, “NUCLEIC ACID MOLECULES WITH ENHANCED ACTIVITY” (priority 2015, published 2018)
